Experimental data as given in US5436221A, “Tumor metastasis inhibiting compounds and methods” (Fuji Photo Film Co., Ltd., priority 1991, dated 1995).
Numbered stars: 1 amine (or outer) side, 2 acyl side, 3 side chain; on linkers, the order of the positions; unused ones are H or OH. Square brackets hold non-standard residues; d marks the D form. Ends that are not written are not given here. Peptide text beside a SMILES is read from it. * marks the point of attachment. X4 = O=C(O)[C@H]1OC(OCCOCCN*)[C@H](O)[C@@H](O)[C@@H]1O; Suc = O=C(CCC(=O)[*:2])[*:1]

Assays:
[1] = test system: B16-BL6 melanoma cells; assay: Experimental melanoma metastasis in lungs caused by injection of B16-BL6 melanoma cells; type: in vivo, C57BL/6 female mice
Description: The tumor metastasis inhibitory activities of the peptide derivatives of the present invention were examined as follows.
Each of the following peptide derivatives according to the present invention, Compounds 1 to 13, 15, 19 to 22, 25, 32, 36, 37, 44, 47, 50, 56-1, 56-4, 59, 65, 68, 70, 73, 76, 77, 80, 84, 87, 89, 90, 94, 96, 99, 101, 103,106, 112, 114, 118 and 121 was mixed with B16-BL6 melanoma cells having a potent metastatic tendency in PBS so that 0.2 ml of the mixture contained 3000, 1000 or 500 μg of the peptide derivative and 5×10^6 of B16-BL6 melanoma cells. Then, 0.2 ml of each mixture was intravenously administered to each individual of a group of C57BL/6 female mice consisting of 5 mice. Fourteen days after the administration, the number of melanoma cell colony in lungs was determined and compared with that of the control mice, which were administered with PBS.
(§1) For comparison, the peptide fragments known to have tumor metastasis inhibition activity, Arg--Gly--Asp--Ser (SEQ ID NO:16) (Comparison A), Gly--Arg--Gly--Asp--Ser (SEQ ID NO:17) (Comparison B) and (Arg--Gly--Asp)n(n=5) (SEQ ID NO:18) as well as Reference Polymer A were also administered to the mice in the same manner as above.

[2] = test system: L5178Y ML25 T-lymphoma cells; assay: Experimental T-lymphoma metastasis in liver and spleen caused by injection of L5178Y ML25 T-lymphoma cells; type: in vivo, CDF1 (BALB/c×DBA/2) female mice; settings: dose 1000 μg mixed with T-lymphoma cells, i.v., 14 days after; for Weight (g): Average ± SD Spleen: PBS control 0.28 ± 0.03, no tumor cells 0.08 ± 0; for Weight (g): Average ± SD Liver: PBS control 4.21 ± 0.49, no tumor cells 1.09 ± 0.11
Description: Separately, each of the following peptide derivatives of the present invention, Compound 1, 2, 8, 12, 20, 47, 56, 59, 67, 73 and 85, was mixed with L5178Y ML25 T-lymphoma cells in PBS so that 0.2 ml of the mixture contained 3000 or 1000 μg of the peptide derivative and 4×10^4 of the T-lymphoma cells. Then, 0.2 ml of each mixture was intravenously administered to each individual of a group of CDF1 (BALB/c×DBA/2) female mice consisting of 5 mice. Fourteen days after the administration, the weights of the livers and the spleens of the mice were determined and compared with those of the control mice.
as §1

[3] = Experiment 7, dose 500 μg, PBS control 85 ± 20
[4] = Experiment 1, dose 3000 μg mixed with B16-BL6 cells, i.v., lung colonies 14 days after, PBS control 116 ± 27
[5] = Experiment 2, dose 1000 μg mixed with B16-BL6 cells, i.v., lung colonies 14 days after, PBS control 84 ± 11
[6] = Experiment 5, dose 1000 μg, PBS control 91 ± 33
[7] = Experiment 3, dose 500 μg, lung colonies 14 days after, PBS control 145 ± 30
[8] = Experiment 6, dose 500 μg, PBS control 128 ± 24
[9] = Experiment 4, dose 500 μg, PBS control 116 ± 19

Compound: 6-O-Carboxymethyl-N-Acetylchitohexaose Carrying --Asp--Arg--Leu--Asp--Ser [Compound 94]
- Number of Colony Average ± SD [1, 3]: 14 ± 3

Compound: 6-O-Carboxymethyl-N-Acetylchitohexaose Carrying --Gly--Arg--Phe--Asp--Ser [Compound 96]
- Number of Colony Average ± SD [1, 3]: 9 ± 4

Compound: 6-O-Sulfated-Carboxymethyl-N-Acetylchitooligosaccharide Carrying --Asp--Arg--D--Leu--Asp--Ser [Compound 99]
- Number of Colony Average ± SD [1, 3]: 3 ± 3

Compound: 6-O-Sulfated-Carboxymethyl-N-Acetylchitooligosaccharide Carrying --Asp--Arg--D--Phe--Asp--Ser [Compound 101]
- Number of Colony Average ± SD [1, 3]: 13 ± 6

Compound: N=C(N)NCCC[C@H](N)C(=O)NCC(=O)N[C@@H](CC(=O)O)C(=O)N[C@@H](CO)C(=O)O [Comparison A, Arg--Gly--Asp--Ser]
- Number of Colony Average ± SD [1, 4]: 70 ± 8
- Number of Colony Average ± SD [1, 5]: 62 ± 9
- Number of Colony Average ± SD ([1]; Experiment 3, dose 3000 μg, PBS control 145 ± 30): 92 ± 14
- Number of Colony Average ± SD ([1]; Experiment 4, dose 3000 μg, PBS control 116 ± 19): 74 ± 11
- Number of Colony Average ± SD ([1]; Experiment 5, dose 3000 μg, PBS control 91 ± 33): 60 ± 4
- Number of Colony Average ± SD ([1]; Experiment 6, dose 3000 μg, PBS control 128 ± 24): 88 ± 20
- Number of Colony Average ± SD ([1]; Experiment 7, dose 3000 μg, PBS control 85 ± 20): 51 ± 6
- Weight (g): Average ± SD Spleen [2]: 0.22 ± 0.03 g
- Weight (g): Average ± SD Liver [2]: 3.67 ± 1.04 g

Compound: N=C(N)NCCC[C@H](NC(=O)CN)C(=O)NCC(=O)N[C@@H](CC(=O)O)C(=O)N[C@@H](CO)C(=O)O [Comparison B, Gly--Arg--Gly--Asp--Ser]
- Number of Colony Average ± SD [1, 4]: 50 ± 10
- Number of Colony Average ± SD [1, 5]: 40 ± 10
- Number of Colony Average ± SD ([1]; Experiment 3, dose 1000 μg, PBS control 145 ± 30): 89 ± 18
- Number of Colony Average ± SD ([1]; Experiment 4, dose 1000 μg, PBS control 116 ± 19): 78 ± 8
- Number of Colony Average ± SD [1, 6]: 49 ± 7
- Number of Colony Average ± SD ([1]; Experiment 6, dose 1000 μg, PBS control 128 ± 24): 76 ± 6
- Number of Colony Average ± SD ([1]; Experiment 7, dose 1000 μg, PBS control 85 ± 20): 50 ± 8
- Weight (g): Average ± SD Spleen [2]: 0.17 ± 0.03 g
- Weight (g): Average ± SD Liver [2]: 2.24 ± 0.46 g

Compound: CC(C)C[C@H](NC(=O)[C@@H](N)CCCNC(=N)N)C(=O)N[C@@H](CC(=O)O)C(=O)N[C@@H](CO)C(N)=O [Compound 9] (H-RLDS-NH2)
- Number of Colony Average ± SD [1, 4]: 22 ± 10

Compound: C[C@@H](NC(=O)[C@@H](N)CCCNC(=N)N)C(=O)N[C@@H](CC(=O)O)C(=O)N[C@H](C(N)=O)[C@@H](C)O [Compound 10] (H-R[dA]DT-NH2)
- Number of Colony Average ± SD [1, 4]: 58 ± 15

Compound: CC(=O)N[C@@H](CC(=O)O)C(=O)N[C@H](CCCNC(=N)N)C(=O)N[C@@H](CC(C)C)C(=O)N[C@@H](CC(=O)O)C(=O)N[C@@H](CO)C(=O)O [Compound 32] (Ac-D[dR]LDS-OH)
- Number of Colony Average ± SD [1, 5]: 24 ± 5

Compound: CC(C)C[C@@H](NC(=O)[C@H](CCCNC(=N)N)NC(=O)[C@H](CO)NC(=O)[C@H](CC(=O)O)NC(=O)[C@@H](CC(C)C)NC(=O)[C@H](CCCNC(=N)N)NC(=O)[C@H](CO)NC(=O)[C@H](CC(=O)O)NC(=O)[C@@H](CC(C)C)NC(=O)[C@H](CCCNC(=N)N)NC(=O)[C@H](CO)NC(=O)[C@H](CC(=O)O)NC(=O)[C@@H](CC(C)C)NC(=O)[C@@H](N)CCCNC(=N)N)C(=O)N[C@@H](CC(=O)O)C(=O)N[C@@H](CO)C(=O)O [Compound 37] (H-R[dL]DSR[dL]DSR[dL]DSR[dL]DS-OH)
- Number of Colony Average ± SD [1, 7]: 27 ± 11

Compound: CC(C)C[C@H](NC(=O)[C@H](CCCNC(=N)N)NC(=O)CCC(=O)NCCOCCOC1O[C@H](C(=O)O)[C@@H](O)[C@H](O)[C@H]1O)C(=O)N[C@@H](CC(=O)O)C(=O)N[C@@H](CO)C(=O)O (some centres unmarked) [Compound 80] ({X4-Suc}-RLDS-OH)
- Number of Colony Average ± SD [1, 8]: 36 ± 7

Compound: (Arg--Gly--Asp)n(n=5) [Comparison C]
- Number of Colony Average ± SD ([1]; Experiment 1, dose 1000 μg mixed with B16-BL6 cells, i.v., lung colonies 14 days after, PBS control 116 ± 27): 40 ± 15
- Number of Colony Average ± SD [1, 5]: 23 ± 9
- Number of Colony Average ± SD [1, 7]: 68 ± 9
- Number of Colony Average ± SD [1, 6]: 39 ± 11
- Number of Colony Average ± SD [1, 8]: 57 ± 12
- Number of Colony Average ± SD [1, 3]: 44 ± 16

Compound: GRLDS [Compound 15]
- Number of Colony Average ± SD [1, 4]: 43 ± 12

Compound: Iminodiacetic Acid-Tetracraboxylic Acid Derivative (β-Ala--Arg--Leu--Asp--Ser)4 [Compound 76]
- Number of Colony Average ± SD [1, 9]: 48 ± 5

Compound: RLDSRLDSRLDSRLDS [Compound 36]
- Number of Colony Average ± SD [1, 7]: 46 ± 6

Compound: R[dL]DR[dL]DR[dL]DR[dL]DR[dL]DR[dL]DR[dL]DR[dL]DR[dL]DR[dL]DR[dL]DR[dL]DR[dL]DR[dL]DR[dL]DR[dL]DR[dL]DR[dL]DR[dL]DR[dL]D [Compound 44]
- Number of Colony Average ± SD [1, 7]: 66 ± 15

Compound: Succinyl Derivative of Chondroitin Sulfate Carrying --(Arg--D--Leu--Asp--Ser)2 [Compound 121]
- Number of Colony Average ± SD [1, 3]: 45 ± 11

Compound: Succinylated CM-Chitin Carrying --(Arg--D--Leu--Asp--Ser)2 [Compound 112]
- Number of Colony Average ± SD [1, 3]: 14 ± 7

Compound: Succinylated CM-Chitin Carrying --Gly--Arg--D--Leu--Asp--Ser [Compound 106]
- Number of Colony Average ± SD [1, 3]: 1 ± 1

Compound: Succinylated Chondroitin Sulfate Carrying --D--Arg--Phe--Asp--Ser [Compound 118]
- Number of Colony Average ± SD [1, 3]: 43 ± 8

Compound: Succinylated Pantaethylenehexaamine (β-Ala--Arg--Leu--Asp--Ser--NH--iPr)6 [Compound 77]
- Number of Colony Average ± SD [1, 9]: 41 ± 6

Compound: Succinylated Polyallylamine Carrying --(Asp--D--Arg--Phe--Asp--Ser)2 [Compound 103]
- Number of Colony Average ± SD [1, 3]: 24 ± 8

Compound: Sulfated CM-Chitin Carrying --Gly--D--Arg--Leu--Asp--Ser [Compound 114]
- Number of Colony Average ± SD [1, 3]: 21 ± 11

Compound: Tetrahydrofuran-2,3,4,5-Tetracarboxylic Acid (Arg--Leu--Asp--Ser)4 (RLDS; also: four copies on tetrahydrofuran-2,3,4,5-tetracarboxylic acid core) [Compound 73]
- Number of Colony Average ± SD [1, 9]: 38 ± 7
- Weight (g): Average ± SD Spleen [2]: 0.15 ± 0.05 g
- Weight (g): Average ± SD Liver [2]: 1.95 ± 1.00 g
